From US5599953A, “C-glycoside analogues of N-(4-hydroxyphenyl)retinamide-O-glucuronide” (The Ohio State Research Foundation, priority 1995, dated 1997)
Where two headings read alike, the source gives them in different places.

How the values were obtained:
[1] = Acid stability, 0.1N methanolic HCl at 37° C. for 2 hours; assay type: physicochemical
Description: To determine the stability of the C-glucopyranosiduronate linkage towards acidic conditions, samples of 4-HPR-O-glucuronide, 4-(retinamido)phenyl-C-glucuronide and 4-(retinamido)benzyl-C-glucuronide were treated with 0.1N methanolic HCl at 37° C. for 2 hours.

β-glucuronidase [2] = target: T1, β-glucuronidase (Homo sapiens, UniProt P08236); assay: Stability toward β-glucuronidase mediated hydrolysis; assay type: in vitro ADME; details: β-glucuronidase
T1 sequence (P08236 23-651): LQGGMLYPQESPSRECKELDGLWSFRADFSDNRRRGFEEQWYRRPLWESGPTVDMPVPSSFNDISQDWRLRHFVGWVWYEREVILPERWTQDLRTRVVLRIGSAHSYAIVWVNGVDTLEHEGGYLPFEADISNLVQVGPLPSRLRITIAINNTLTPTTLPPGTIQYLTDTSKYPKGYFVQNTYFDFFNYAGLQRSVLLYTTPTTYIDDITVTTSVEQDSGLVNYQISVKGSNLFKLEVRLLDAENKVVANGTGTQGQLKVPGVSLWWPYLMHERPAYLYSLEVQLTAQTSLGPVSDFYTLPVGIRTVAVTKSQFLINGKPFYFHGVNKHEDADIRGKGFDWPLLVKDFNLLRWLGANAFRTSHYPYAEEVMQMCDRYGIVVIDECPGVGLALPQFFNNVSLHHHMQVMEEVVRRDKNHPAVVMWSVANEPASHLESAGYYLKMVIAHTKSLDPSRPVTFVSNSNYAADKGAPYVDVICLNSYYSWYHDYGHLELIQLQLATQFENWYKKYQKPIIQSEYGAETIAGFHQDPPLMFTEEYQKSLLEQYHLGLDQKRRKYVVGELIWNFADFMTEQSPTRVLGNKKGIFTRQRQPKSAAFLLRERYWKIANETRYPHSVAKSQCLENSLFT
Description: Similarly 1-(D-glucopyranosyluronosyl) retinamide and RAG were evaluated for their stability toward β-glucuronidase medicated hydrolysis under the same conditions as described above.

mRARα = target: T2, mRARα (Mus musculus, UniProt P11416); assay: Drug competition with (3H)retinoic acid binding, mRARα; details: read-out: percent reduction of binding of the (3H)retinoic acid, mRARα; 1 μM drug; 5 nM [3H]RA
T2 construct: made in house; host or cells: Spodoptera frugiperda insect cells, baculovirus (whole cell extract)
T2 sequence (P11416 1-462): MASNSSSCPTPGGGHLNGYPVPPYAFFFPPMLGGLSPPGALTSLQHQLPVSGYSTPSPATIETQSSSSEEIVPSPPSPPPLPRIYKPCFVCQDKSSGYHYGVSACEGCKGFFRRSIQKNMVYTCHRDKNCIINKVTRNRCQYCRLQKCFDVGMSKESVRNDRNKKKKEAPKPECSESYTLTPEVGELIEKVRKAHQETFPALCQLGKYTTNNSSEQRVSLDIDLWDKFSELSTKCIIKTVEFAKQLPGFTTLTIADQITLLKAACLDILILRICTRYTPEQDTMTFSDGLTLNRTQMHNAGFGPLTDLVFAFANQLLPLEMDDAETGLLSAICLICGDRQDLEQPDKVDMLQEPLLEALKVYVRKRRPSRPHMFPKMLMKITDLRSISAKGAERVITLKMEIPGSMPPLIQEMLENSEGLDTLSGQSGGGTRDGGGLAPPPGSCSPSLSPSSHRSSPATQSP

mRARβ = target: T3, mRARβ (Mus musculus, UniProt P22605); assay: Drug competition with (3H)retinoic acid binding, mRARβ; details: read-out: percent reduction of binding of the (3H)retinoic acid, mRARβ; 1 μM drug; 5 nM [3H]RA
T3 construct: made in house; host or cells: Spodoptera frugiperda insect cells, baculovirus (whole cell extract)
T3 sequence (P22605 1-448 isoform P22605-3): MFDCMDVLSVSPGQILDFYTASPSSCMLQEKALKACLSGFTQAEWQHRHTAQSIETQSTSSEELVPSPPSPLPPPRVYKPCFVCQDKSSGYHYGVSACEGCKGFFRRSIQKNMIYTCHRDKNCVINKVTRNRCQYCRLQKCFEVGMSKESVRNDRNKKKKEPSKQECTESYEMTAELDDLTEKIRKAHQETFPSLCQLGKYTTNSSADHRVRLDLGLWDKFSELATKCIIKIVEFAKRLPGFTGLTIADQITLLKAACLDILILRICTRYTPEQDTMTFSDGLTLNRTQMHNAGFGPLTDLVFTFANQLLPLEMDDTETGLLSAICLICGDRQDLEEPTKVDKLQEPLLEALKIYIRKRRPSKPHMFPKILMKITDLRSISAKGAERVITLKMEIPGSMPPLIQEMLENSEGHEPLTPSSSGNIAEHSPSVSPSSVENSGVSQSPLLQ

mRARγ = target: T4, mRARγ (Mus musculus, UniProt P18911); assay: Drug competition with (3H)retinoic acid binding, mRARγ; details: read-out: percent reduction of binding of the (3H)retinoic acid, mRARγ; 1 μM drug; 5 nM [3H]RA
T4 construct: made in house; host or cells: Spodoptera frugiperda insect cells, baculovirus (whole cell extract)
T4 sequence (P18911 1-458): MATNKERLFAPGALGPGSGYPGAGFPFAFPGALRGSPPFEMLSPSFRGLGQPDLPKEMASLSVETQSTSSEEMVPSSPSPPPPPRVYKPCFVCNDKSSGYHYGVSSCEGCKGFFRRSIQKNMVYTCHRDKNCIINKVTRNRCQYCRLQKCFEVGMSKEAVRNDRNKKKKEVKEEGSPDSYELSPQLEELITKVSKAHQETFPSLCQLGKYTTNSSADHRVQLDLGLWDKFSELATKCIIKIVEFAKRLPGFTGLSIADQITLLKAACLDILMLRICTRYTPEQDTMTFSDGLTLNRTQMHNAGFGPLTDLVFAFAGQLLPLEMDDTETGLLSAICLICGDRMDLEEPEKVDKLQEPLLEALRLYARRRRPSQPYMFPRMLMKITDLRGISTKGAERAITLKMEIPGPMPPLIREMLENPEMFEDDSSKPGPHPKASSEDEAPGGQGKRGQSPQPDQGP

[3] = tested on: MCF-7 human mammary cell tumor culture; details: Bhatnagar et al.; cited from earlier work
[4] = background statement; cited from earlier work
β-glucuronidase [5] = target: T1, β-glucuronidase; details: background statement; cited from earlier work

inhibition at 1 µM (mRARα): 14%
inhibition at 1 µM (mRARβ): 4%
inhibition at 1 µM (mRARγ): 7%
SMILES: CC1=C(/C=C/C(C)=C/C=C/C(C)=C/C(=O)Nc2ccc(O[C@@H]3O[C@H](C(=O)O)[C@@H](O)[C@H](O)[C@H]3O)cc2)C(C)(C)CCC1 [4-HPR-O-glucuronide, N-(4-hydroxyphenyl)retinamide-O-glucuronide]
acid hydrolysis (stability) [1]: had undergone substantial hydrolysis of the ether linkage
hydrolysis by β-glucuronidase (β-glucuronidase [2]): is hydrolysed to glucuronic acid and the aglycone by β-glucuronidase
antiproliferative activity and toxicity vs 4-HPR [3]: greater antiproliferative activity and less toxicity
stability in acidic media [4]: hydrolyzed in acidic media
hydrolysis by β-glucuronidase (β-glucuronidase [5]): also by the enzyme β-glucuronidase
in vivo half life (β-glucuronidase [5]): quite limited
